From patent US12492199B2, “Pyridopyrimidines as histamine H4-receptor inhibitors” (FAES FARMA, S.A., priority 2018, dated 2025)
Read-outs that look alike come from different tables or passages of the source.

Target: human H4 receptor (Homo sapiens (Human), UniProt Q9H3N8)
Assay: H4 Binding assay ([3H]histamine competition, membranes from CHO-K1 cells transfected with human H4 receptor)
Experimental: Affinity for histamine H4-receptor was determined by H4 Binding assay:
• Membranes from CHO-K1 cells transfected with human H4 receptor and microplates of 96-well format were used. • For competition studies cell membranes were homogenated in Tris-HCl 50 mM, EDTA 5 mM, pH 7.4 and added to the microplate at the concentration of approximately 15 μg/well. […] Non specific binding was defined using 10 μM unlabeled histamine and the total incubation volume was 275 μl per well. • Incubations were performed under gentle agitation at 25° C. for 60 min and concluding with a rapid vacuum filtration using pre-soaked filters (0.5% polyethylenimine). After ten rapid washes with cold wash buffer (50 mM Tris-HCl buffer) the filter plates were dried at room temperature for 30 min. • Finally, scintillation liquid (Microscint 20) was added to the whole microplate in order to measure the radioactivity reattained on the filters using a specific scintillation counter (Top Count—NXT). […] H1 Binding Assay Materials

[1] = affinity for human histamine H4 receptor, class symbols, read-out: ACTIVITY CLASS hH4R (Ki)

| Structure (SMILES) | Ki [1] [nM] | other results |
| --- | --- | --- |
| O=S(=O)(CCNc1nc(N2CCN3CCCC3C2)nc2cnc(Cl)cc12)Nc1ccccc1 (stereo not drawn) [Example 37, 2-((6-chloro-2-(hexahydropyrrolo[1,2-a]pyrazin-2(1H)-yl)pyrido[3,4-d]pyrimidin-4-yl)amino)-N-phenylethane-1-sulfonamide] | < 100 |  |
| CNC(=O)CCNc1nc(N2CCN(C)CC2)nc2cnc(Cl)cc12 [Example 98, 3-((6-chloro-2-(4-methylpiperazin-1-yl)pyrido[3,4-d]pyrimidin-4-yl)amino)-N-methylpropanamide] | < 1000 |  |
| CN1CCN(c2nc(NCCS(=O)(=O)NCc3ccccn3)c3cc(Cl)ncc3n2)CC1 [Example 88, 2-((6-chloro-2-(4-methylpiperazin-1-yl)pyrido[3,4-d]pyrimidin-4-yl)amino)-N-(pyridin-2-ylmethyl)ethane-1-sulfonamide] | < 100 |  |
| CN1CCN(c2nc(NCCS(=O)(=O)Nc3cccc(C(F)(F)F)c3)c3cc(Cl)ncc3n2)CC1 [Example 78, 2-((6-chloro-2-(4-methylpiperazin-1-yl)pyrido[3,4-d]pyrimidin-4-yl)amino)-N-(3-(trifluoromethyl)phenyl)ethane-1-sulfonamide] | < 100 |  |
| CN1CCN(c2nc(NCCS(=O)(=O)N3CCOCC3)c3cc(Cl)ncc3n2)CC1 [Example 18, 6-chloro-2-(4-methylpiperazin-1-yl)-N-(2-(morpholinosulfonyl)ethyl)pyrido[3,4-d]pyrimidin-4-amine] | < 100 |  |
| CN1CCN(c2nc(NCCS(=O)(=O)Nc3ccc(C(F)(F)F)cc3)c3cc(Cl)ncc3n2)CC1 [Example 83, 2-((6-chloro-2-(4-methylpiperazin-1-yl)pyrido[3,4-d]pyrimidin-4-yl)amino)-N-(4-(trifluoromethyl)phenyl)ethane-1-sulfonamide] | < 1000 |  |
| CN1CCN(c2nc(NCCS(=O)(=O)Nc3cccc(Cl)c3)c3cc(Cl)ncc3n2)CC1 [Example 76, 2-((6-chloro-2-(4-methylpiperazin-1-yl)pyrido[3,4-d]pyrimidin-4-yl)amino)-N-(3-chlorophenyl)ethane-1-sulfonamide] | < 100 |  |
| O=S(=O)(CCNc1nc(N2CCN3CCCC3C2)nc2cnc(Cl)cc12)N1CCOCC1 (stereo not drawn) [Example 38, 6-chloro-2-(hexahydropyrrolo[1,2-a]pyrazin-2(1H)-yl)-N-(2-(morpholinosulfonyl)ethyl)pyrido[3,4-d]pyrimidin-4-amine] | < 100 |  |
| O=S(=O)(CCNc1nc(N2CCNCC2)nc2cnc(Cl)cc12)N1CCOCC1 [Example 28, 6-chloro-N-(2-(morpholinosulfonyl)ethyl)-2-(piperazin-1-yl)pyrido[3,4-d]pyrimidin-4-amine] | < 100 |  |
| CN(c1ccccc1)S(=O)(=O)CCNc1nc(N2CCNCC2)nc2cnc(Cl)cc12 [Example 27, 2-((6-chloro-2-(piperazin-1-yl)pyrido[3,4-d]pyrimidin-4-yl)amino)-N-methyl-N-phenylethane-1-sulfonamide] | < 100 |  |
| Cc1ccc(NS(=O)(=O)CCNc2nc(N3CCN(C)CC3)nc3cnc(Cl)cc23)cc1 [Example 84, 2-((6-chloro-2-(4-methylpiperazin-1-yl)pyrido[3,4-d]pyrimidin-4-yl)amino)-N-(p-tolyl)ethane-1-sulfonamide] | < 100 |  |
| CN1CCN(c2nc(NCc3cccs3)c3cnc(Cl)cc3n2)CC1 [Example 3P, reference compound] |  | IC50 (histamine H4 receptor binding): 889 nM; inhibition at 1 µM (histamine H4 receptor binding, compounds initially evaluated at 1 μM): 68%; Ki (histamine H4 receptor, comparative compounds, read-out: Ki): 340 nM |
| CCCc1cc2c(NCCc3cccs3)nc(N3CCN(C)CC3)nc2cn1 [Example 50, 2-(4-methylpiperazin-1-yl)-6-propyl-N-(2-(thiophen-2-yl)ethyl)pyrido[3,4-d]pyrimidin-4-amine] | < 1000 |  |
| O=S(=O)(CCNc1nc(C2=CCNCC2)nc2cnc(Cl)cc12)Nc1ccccc1 [Example 41, 2-((6-chloro-2-(1,2,3,6-tetrahydropyridin-4-yl)pyrido[3,4-d]pyrimidin-4-yl)amino)-N-phenylethane-1-sulfonamide] |  | Ki: < 100 nM |
| Cc1cccc(NS(=O)(=O)CCNc2nc(N3CCN(C)CC3)nc3cnc(Cl)cc23)c1 [Example 79, 2-((6-chloro-2-(4-methylpiperazin-1-yl)pyrido[3,4-d]pyrimidin-4-yl)amino)-N-(m-tolyl)ethane-1-sulfonamide] | < 100 |  |
| CCCCNc1nc(N2CCN(C)CC2)nc2cnc(Cl)cc12 [Example 22, N-butyl-6-chloro-2-(4-methylpiperazin-1-yl)pyrido[3,4-d]pyrimidin-4-amine] | < 1000 |  |
| CN1CCN(c2nc(NCc3nccs3)c3cc(Cl)ncc3n2)CC1 [Example 7, 6-chloro-2-(4-methylpiperazin-1-yl)-N-(thiazol-2-ylmethyl)pyrido[3,4-d]pyrimidin-4-amine] | < 1000 |  |
| CN1CCN(c2nc(NCCS(=O)(=O)Nc3ccc(Cl)cc3)c3cc(Cl)ncc3n2)CC1 [Example 82, 2-((6-chloro-2-(4-methylpiperazin-1-yl)pyrido[3,4-d]pyrimidin-4-yl)amino)-N-(4-chlorophenyl)ethane-1-sulfonamide] | < 100 |  |
| CN1CCN(c2nc(NCc3ncc[nH]3)c3cc(Cl)ncc3n2)CC1 [Example 8, N-((1H-imidazol-2-yl)methyl)-6-chloro-2-(4-methylpiperazin-1-yl)pyrido[3,4-d]pyrimidin-4-amine] | < 1000 |  |
| CNS(=O)(=O)CCNc1nc(N2CCN(C)CC2)nc2cnc(Cl)cc12 [Example 14, 2-((6-chloro-2-(4-methylpiperazin-1-yl)pyrido[34-d]pyrimidin-4-yl)amino)-N-methylethane-1-sulfonamide] | < 100 |  |
| CN1CCN(c2nc(NCCS(=O)(=O)Nc3cccc(Cl)n3)c3cc(Cl)ncc3n2)CC1 [Example 87, 2-((6-chloro-2-(4-methylpiperazin-1-yl)pyrido[3,4-d]pyrimidin-4-yl)amino)-N-(6-chloropyridin-2-yl)ethane-1-sulfonamide] | < 1000 |  |
| CN1CCN(c2nc(NCCS(=O)(=O)Nc3ccccc3)c3cc(Cl)ncc3n2)CC1 [Example 16, 2-((6-chloro-2-(4-methylpiperazin-1-yl)pyrido[3,4-d]pyrimidin-4-yl)amino)-N-phenylethane-1-sulfonamide] | < 100 |  |
| CN1CCN(c2nc(NCCc3cccs3)c3cc(Cl)ncc3n2)CC1 [Example 6, 6-chloro-2-(4-methylpiperazin-1-yl)-N-(2-(thiophen-2-yl)ethyl)pyrido[3,4-d]pyrimidin-4-amine] | < 1000 |  |
| CN1CCN(c2nc(NCCS(=O)(=O)Nc3cccc(OC(F)(F)F)c3)c3cc(Cl)ncc3n2)CC1 [Example 77, 2-((6-chloro-2-(4-methylpiperazin-1-yl)pyrido[3,4-d]pyrimidin-4-yl)amino)-N-(3-(trifluoromethoxy)phenyl)ethane-1-sulfonamide] | < 1000 |  |
| O=S(=O)(CCNc1nc(N2CCNCC2)nc2cnc(Cl)cc12)Nc1ccccc1 [Example 26, 2-((6-chloro-2-(piperazin-1-yl)pyrido[3,4-d]pyrimidin-4-yl)amino)-N-phenylethane-1-sulfonamide] | < 100 |  |

Further lines, with some results ahead:

| Ki [1] [nM] | Structure (SMILES) | other results |
| --- | --- | --- |
| < 100 | Cc1ccccc1NS(=O)(=O)CCNc1nc(N2CCN(C)CC2)nc2cnc(Cl)cc12 [Example 73, 2-((6-chloro-2-(4-methylpiperazin-1-yl)pyrido[3,4-d]pyrimidin-4-yl)amino)-N-(o-tolyl)ethane-1-sulfonamide] |  |
| < 100 | COc1cccc(NS(=O)(=O)CCNc2nc(N3CCN(C)CC3)nc3cnc(Cl)cc23)c1 [Example 80, 2-((6-chloro-2-(4-methylpiperazin-1-yl)pyrido[3,4-d]pyrimidin-4-yl)amino)-N-(3-methoxyphenyl)ethane-1-sulfonamide] |  |
| < 100 | CSc1cccc(NS(=O)(=O)CCNc2nc(N3CCN(C)CC3)nc3cnc(Cl)cc23)c1 [Example 81, 2-((6-chloro-2-(4-methylpiperazin-1-yl)pyrido[3,4-d]pyrimidin-4-yl)amino)-N-(3-(methylthio)phenyl)ethane-1-sulfonamide] |  |
| < 1000 | CN1CCN(c2nc(NCCS(=O)(=O)Nc3ccccc3N)c3cc(Cl)ncc3n2)CC1 [Example 75, N-(2-aminophenyl)-2-((6-chloro-2-(4-methylpiperazin-1-yl)pyrido[3,4-d]pyrimidin-4-yl)amino)ethane-1-sulfonamide] |  |
| < 100 | CN1CCN(c2nc(NCCS(=O)(=O)Nc3cccnc3)c3cc(Cl)ncc3n2)CC1 [Example 86, 2-((6-chloro-2-(4-methylpiperazin-1-yl)pyrido[3,4-d]pyrimidin-4-yl)amino)-N-(pyridin-3-yl)ethane-1-sulfonamide] |  |
| < 1000 | CC(C)c1cc2c(NCCc3cccs3)nc(N3CCN(C)CC3)nc2cn1 [Example 53, 6-isopropyl-2-(4-methylpiperazin-1-yl)-N-(2-(thiophen-2-yl)ethyl)pyrido[3,4-d]pyrimidin-4-amine] |  |
| < 100 | CC(C)c1cc2c(NCc3cccs3)nc(N3CCN(C)CC3)nc2cn1 [Example 52, 6-isopropyl-2-(4-methylpiperazin-1-yl)-N-(thiophen-2-ylmethyl)pyrido[3,4-d]pyrimidin-4-amine] |  |
| < 100 | CN1CCN(c2nc(NCCS(N)(=O)=O)c3cc(Cl)ncc3n2)CC1 [Example 71, 2-((6-chloro-2-(4-methylpiperazin-1-yl)pyrido[3,4-d]pyrimidin-4-yl)amino)ethane-1-sulfonamide] |  |
| < 1000 | Cc1cc2c(NCc3cccs3)nc(N3CCN(C)CC3)nc2cn1 [Example 46, 6-methyl-2-(4-methylpiperazin-1-yl)-N-(thiophen-2-ylmethyl)pyrido[3,4-d]pyrimidin-4-amine] |  |
